We go through nine compounds from patent publication US12297223B2, “Compounds” (GLAXOSMITHKLINE INTELLECTUAL PROPERTY DEVELOPMENT LIMITED, priority 2019, dated 2025).

A short description of data set [1]: Rat pharmacokinetics after IV infusion and oral dose (AUC oral, % F, Ue % PO). Type of data set: in vivo, Male Wistar Han rats. Particulars: for DNAUC oral h*uM: PO 5 mg/kg, dose normalized AUC in blood, n = 3; for bioavailability: male, Wistar Han, whole blood, oral bioavailability, PO 5 mg/kg vs IV infusion 1 mg/kg; for Ue% po: percentage of oral dose eliminated unchanged in urine (or estimate from iv urine fraction times oral bioavailability). The source says:
General Assays for Obtaining AUC Oral h*μm, % F, and Ue % PO Values
Male Wistar Han rats were purchased from Vital River Laboratory Animal Technology Co. Ltd (Beijing, China). The animals were approx. 6-8 weeks old with body weights of 200-300 g on the dosing date. The animals were housed in a 12-hour light/12-hour dark cycle environment and had free access to food and water. All animals were fed prior to dosing. Studies were approved by the Pharmaron Institutional Animal Care and Use Committee (IACUC).
Test article was administered as an intravenous infusion for 1 hour (1 mg/kg) at 5 mL/kg/h. After 48 h, animals received a single oral dose (5 mg/kg, free form) at a dose volume of 10 mL/kg, respectively. Blood samples were collected at various time points after IV infusion and PO administrations. Urine samples were collected at various time points after IV infusion and PO administrations (for some compounds).
Test article was dissolved in DMSO with vortexing and sonification to obtain a stock solution. An aliquot of the stock solution was mixed with 10% HP-β-CD in saline with vortexing to obtain a solution with concentration at 0.2 mg/mL of test article.
Test article was added into 1% Methyl Cellulose with vortexing and sonication to obtain a homogeneous suspension with concentration at 0.5 mg/mL of test article.
For IV infusion (1 mg/kg) administration, blood samples were collected from each animal at 0, 0.25, 0.5, 0.75, 1, 1.08, 1.25, 1.5, 1.75, 2, 3, 5, 8, 12, 24 hour post-dose.
For PO (5 mg/kg) administration, blood samples were collected from each animal at 0, 0.25, 0.5, 1, 1.5, 2, 3, 4, 6, 8, 12, 24 hour post-dose.
Blood samples (50 μL) were collected from each animal via jugular vein. These blood samples were placed into tubes containing K2EDTA. Whole blood was mixed with same volume of water and inverted several times. The blood samples were stored at −75±15° C. until analysis.
For IV infusion (1 mg/kg) administration, urine samples were collected from each animal at 0-4, 4-8, 8-12, 12-24 hour post-dose.
For PO (5 mg/kg) administration, urine samples were collected (for some compounds) from each animal at 0-4, 4-8, 8-12, 12-24 hour post-dose.
55 μL of standards, 55 μL of QC samples or 55 μL of unknown samples (50 μL of blood or urine with 5 μL 50% acetonitrile) were mixed to 200 μL of acetonitrile containing IS (dexamethasone) to precipitate proteins. Then the samples were vortexed for 30 sec. After centrifugation at 4° C., 4700 rpm for 30 min, and 5 μL of the supernatant was injected into the LC-MS/MS system for quantitative analysis.
Test article blood and urine concentrations for each animal following IV infusion at 1 mg/kg and PO at 5 mg/kg were used to calculate pharmacokinetic parameters by employing a non-compartmental analysis (Phoenix™ WinNonlin® 7.0). The linear trapezoidal algorithm was used for AUC calculation. • AUC oral h*μM: Area under the curve (AUC) of drug concentration in blood vs. time (units: h*μM) following oral administration • % F: Oral bioavailability (%) derived from the ratio of dose-normalized AUC following PO and IV administration • Ue % PO: Percentage of oral dose eliminated unchanged in urine or an estimater of that parameter generated from using the percentage of the iv dose eliminated in the urine times the oral bioavailability

In another data set the target is T1, FimH (Escherichia coli, UniProt Q1R2J4).
T1 construct: endogenous in cells; host or cells: E. coli UTI89 (whole bacteria)
The data set is described as follows: Hemagglutination inhibition (HAI) assay with UTI89 bacteria and guinea pig red blood cells. Note: ranges in brackets are in nM. Type of data set: cell-based. Particulars: HAI titer (EC>90): concentration reducing bacterial agglutination of guinea pig red blood cells by greater than 90%. Here is the method: “HAI titer or EC>90” is that concentration of the FimH inhibitor/antagonist which reduces the bacterial agglutination of guinea pig red blood cells by greater than 90%.
The activities of the Examples 1-34 compounds above as FimH antagonists/inhibitors were obtained by the following assay(s), and results are provided in Table 1. Results not provided mean that the activities have not yet been tested.
Hemagglutination Inhibition Assay (HAI)
The hemagglutination inhibition (HAI) assay was performed with UTI89 bacteria and guinea pig red blood cells, as previously described (S. J. Hultgren, W. R. Schwan, A. J. Schaeffer, J. L. Duncan Infect. Immun. 1986, 54, 613-620 and Jarvis, C.; Han, Z.; Kalas, V.; Klein, R.; Pinkner, J. S.; Ford, B.; Binkley, J.; Cusumano, C. K.; Cusumano, Z.; Mydock-McGrane, L.; Hultgren, S. J.; Janetka, J. W., Chem Med Chem 2016, 11, 367-373). Values not listed were not tested.

As to `C[C@H](c1ccc(-c2cnc(C(F)(F)F)cn2)cc1C(F)(F)F)[C@H]1O[C@H](CO)[C@@H](O)[C@H](O)[C@@H]1O` [Example 3, (2R,3S,4R,5S,6R)-2-(hydroxymethyl)-6-((R)-1-(2-(trifluoromethyl)-4-(5-(trifluoromethyl)pyrazin-2-yl)phenyl)ethyl)tetrahydro-2H-pyran-3,4,5-triol], in data set [1], the “DNAUC oral h*uM” value is ““+++” (>1 h · μM)”, the bioavailability was greater than 30% and the Ue% po entry is listed as ““+++” (>5%)”. Besides, on FimH, the HAI result was ““++++” (<50)”.
In the same order, the values of `Cc1cc(-c2cncc(C(F)(F)F)n2)ccc1[C@@H](C)[C@H]1O[C@H](CO)[C@@H](O)[C@H](O)[C@@H]1O` [Example 29] are ““+” (<0.5 h · μM)”, 10 to 30%, ““++” (0.5 ≤ x ≤ 5%)” and ““++++” (<50)”.
Regarding `CC[C@H](c1ccc(-c2ccn(C)c(=O)c2)cc1C)[C@H]1O[C@H](CO)[C@@H](O)[C@H](O)[C@@H]1O` [Example 16], the “DNAUC oral h*uM” value in data set [1] was ““+” (<0.5 h · μM)”. The HAI entry at FimH is recorded as ““+++” (50-200)”.
`CC[C@H](c1ccc(-c2cncc(C#N)c2)cc1C)[C@H]1O[C@H](CO)[C@@H](O)[C@H](O)[C@@H]1O` [Example 21]: the “DNAUC oral h*uM” value in data set [1] is ““+” (<0.5 h · μM)”. Also, at FimH, the HAI entry was ““+++” (50-200)”.
In the case of `Cc1cc(-c2cnc(C(F)(F)F)cn2)ccc1[C@@H](C)[C@H]1O[C@H](CO)[C@@H](O)[C@H](O)[C@@H]1O` [Example 1, (2R,3S,4R,5S,6R)-2-(Hydroxymethyl)-6-((R)-1-(2-methyl-4-(5-(trifluoromethyl)pyrazin-2-yl)phenyl)ethyl)tetrahydro-2H-pyran-3,4,5-triol], in data set [1], the “DNAUC oral h*uM” value was ““++” (0.5 ≤ x ≤ h · μM)”, the bioavailability is greater than 30% and the Ue% po result is on record as ““+++” (>5%)”. Also, the HAI result on FimH is given as ““++++” (<50)”.
In the same order, the values of `Cc1cc(-c2cc(F)c(Cl)c(F)c2)ccc1[C@@H](CO)[C@H]1O[C@H](CO)[C@@H](O)[C@H](O)[C@@H]1O` [Example 7, (2R,3S,4R,5S,6R)-2-((S)-1-(4′-chloro-3′,5′-difluoro-3-methyl-[1,1′-biphenyl]-4-yl)-2-hydroxyethyl)-6-(hydroxymethyl)tetrahydro-2H-pyran-3,4,5-triol] are ““++” (0.5 ≤ x ≤ h · μM)”, 10 to 30%, ““++” (0.5 ≤ x ≤ 5%)” and ““++++” (<50)”.
Regarding `Cc1cc(-c2cc(F)c(Cl)c(F)c2)ccc1[C@@H](CCO)[C@H]1O[C@H](CO)[C@@H](O)[C@H](O)[C@@H]1O` [Example 14], in data set [1], the “DNAUC oral h*uM” value was ““+” (<0.5 h · μM)”. In addition, the HAI entry on FimH is ““++++” (<50)”.
Consider `Cc1cc(-c2cncc(C(F)(F)F)c2)ccc1[C@@H](C)[C@H]1O[C@H](CO)[C@@H](O)[C@H](O)[C@@H]1O` [Example 4, (2R,3S,4R,5S,6R)-2-(Hydroxymethyl)-6-((R)-1-(2-methyl-4-(5-(trifluoromethyl)pyridin-3-yl)phenyl)ethyl)tetrahydro-2H-pyran-3,4,5-triol], for which, in data set [1], the “DNAUC oral h*uM” value is recorded as ““++” (0.5 ≤ x ≤ h · μM)”, the bioavailability was greater than 30% and the Ue% po result is reported as ““+++” (>5%)”. Further, the HAI result on FimH was ““++++” (<50)”.
In the case of `C=C[C@H](c1ccc(-c2cnc(C3CC3)cn2)cc1C)[C@H]1O[C@H](CO)[C@@H](O)[C@H](O)[C@@H]1O` [Example 19], in data set [1], the “DNAUC oral h*uM” value is reported as ““+” (<0.5 h · μM)”. Further, the HAI entry on FimH is listed as ““++++” (<50)”.
